# PubChem BioAssay (NCI)
#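 Following 48 hours of exposure in 96-well plates, responses at five concentrations were used to interpolate endpoints linearly. GI50 = concentration required for 50% inhibition of growth. Definition used: TGI = concentration required for complete inhibition of growth.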
# Key:
# Experiment in all cases: NCI-60 cell line screen, 48 h
# UACC-257 melanoma = test system: UACC-257 melanoma
# PC-3 prostate = test system: PC-3 prostate
# SK-OV-3 ovarian = test system: SK-OV-3 ovarian
# HT29 colon = test system: HT29 colon
# M14 melanoma = test system: M14 melanoma
# RXF 393 renal = test system: RXF 393 renal
# SW-620 colon = test system: SW-620 colon
# OVCAR-5 ovarian = test system: OVCAR-5 ovarian
# K-562 leukemia = test system: K-562 leukemia
# MDA-MB-435 = test system: MDA-MB-435
# SF-268 CNS = test system: SF-268 CNS
# OVCAR-4 ovarian = test system: OVCAR-4 ovarian
# SNB-19 CNS = test system: SNB-19 CNS
# NCI-H460 lung = test system: NCI-H460 lung
# MCF7 breast = test system: MCF7 breast
# NCI/ADR-RES ovarian = test system: NCI/ADR-RES ovarian
# SK-MEL-28 melanoma = test system: SK-MEL-28 melanoma
# HOP-62 NSCLC = test system: HOP-62 NSCLC
# OVCAR-3 ovarian = test system: OVCAR-3 ovarian
# MDA-MB-468 breast = test system: MDA-MB-468 breast
# RPMI-8226 leukemia = test system: RPMI-8226 leukemia
# SF-295 CNS = test system: SF-295 CNS
# T-47D breast = test system: T-47D breast
# OVCAR-8 ovarian = test system: OVCAR-8 ovarian
# 786-0 renal = test system: 786-0 renal
# HCT-116 colon = test system: HCT-116 colon
# NCI-H522 lung = test system: NCI-H522 lung
# IGROV1 ovarian = test system: IGROV1 ovarian
# U251 CNS = test system: U251 CNS
# HL-60(TB) leukemia = test system: HL-60(TB) leukemia
# EKVX NSCLC = test system: EKVX NSCLC
# MOLT-4 leukemia = test system: MOLT-4 leukemia
# UO-31 renal = test system: UO-31 renal
# A549 NSCLC = test system: A549 NSCLC
# UACC-62 melanoma = test system: UACC-62 melanoma
# DU-145 prostate = test system: DU-145 prostate
# KM12 colon = test system: KM12 colon
# LOX IMVI melanoma = test system: LOX IMVI melanoma
# SF-539 CNS = test system: SF-539 CNS
# A498 renal = test system: A498 renal
# SN12C renal = test system: SN12C renal
# MDA-MB-231 breast = test system: MDA-MB-231 breast
# ACHN renal = test system: ACHN renal
# CCRF-CEM leukemia = test system: CCRF-CEM leukemia
# MALME-3M melanoma = test system: MALME-3M melanoma
# HCC-2998 colon = test system: HCC-2998 colon
# COLO 205 colon = test system: COLO 205 colon
# CAKI-1 renal = test system: CAKI-1 renal
# TK-10 renal = test system: TK-10 renal
# SK-MEL-2 melanoma = test system: SK-MEL-2 melanoma
# NCI-H23 lung = test system: NCI-H23 lung
# SK-MEL-5 melanoma = test system: SK-MEL-5 melanoma
# HS 578T breast = test system: HS 578T breast
# BT-549 breast = test system: BT-549 breast
# NCI-H226 lung = test system: NCI-H226 lung
# HCT-15 colon = test system: HCT-15 colon
# SR leukemia = test system: SR leukemia
structure (smiles),measurement,setting,value
CN1CCN(c2ccc(C(=O)/C=C/c3ccc(Br)cc3)cc2)CC1,GI50,UACC-257 melanoma,> 100 µM
same,TGI,UACC-257 melanoma,> 100 µM
same,GI50,PC-3 prostate,28.2 µM
same,TGI,PC-3 prostate,> 100 µM
same,GI50,SK-OV-3 ovarian,53.9 µM
same,TGI,SK-OV-3 ovarian,> 100 µM
same,GI50,HT29 colon,15.8 µM
same,TGI,HT29 colon,> 100 µM
same,GI50,M14 melanoma,36.6 µM
same,TGI,M14 melanoma,> 100 µM
same,GI50,RXF 393 renal,17.2 µM
same,TGI,RXF 393 renal,> 100 µM
same,GI50,SW-620 colon,23.2 µM
same,TGI,SW-620 colon,> 100 µM
same,GI50,OVCAR-5 ovarian,51.9 µM
same,TGI,OVCAR-5 ovarian,> 100 µM
same,GI50,K-562 leukemia,6.96 µM
same,TGI,K-562 leukemia,78.5 µM
same,GI50,MDA-MB-435,22.4 µM
same,TGI,MDA-MB-435,98 µM
same,GI50,SF-268 CNS,> 100 µM
same,TGI,SF-268 CNS,> 100 µM
same,GI50,OVCAR-4 ovarian,70.8 µM
same,TGI,OVCAR-4 ovarian,> 100 µM
same,GI50,SNB-19 CNS,> 100 µM
same,TGI,SNB-19 CNS,> 100 µM
same,GI50,NCI-H460 lung,> 100 µM
same,TGI,NCI-H460 lung,> 100 µM
same,GI50,MCF7 breast,5.67 µM
same,TGI,MCF7 breast,> 100 µM
same,GI50,NCI/ADR-RES ovarian,76 µM
same,TGI,NCI/ADR-RES ovarian,> 100 µM
same,GI50,SK-MEL-28 melanoma,76.2 µM
same,TGI,SK-MEL-28 melanoma,> 100 µM
same,GI50,HOP-62 NSCLC,> 100 µM
same,TGI,HOP-62 NSCLC,> 100 µM
same,GI50,OVCAR-3 ovarian,24.4 µM
same,TGI,OVCAR-3 ovarian,96 µM
same,GI50,MDA-MB-468 breast,7.85 µM
same,TGI,MDA-MB-468 breast,41 µM
same,GI50,RPMI-8226 leukemia,5.38 µM
same,TGI,RPMI-8226 leukemia,32.2 µM
same,GI50,SF-295 CNS,41.3 µM
same,TGI,SF-295 CNS,> 100 µM
same,GI50,T-47D breast,28.7 µM
same,TGI,T-47D breast,> 100 µM
same,GI50,OVCAR-8 ovarian,54.9 µM
same,TGI,OVCAR-8 ovarian,> 100 µM
same,GI50,786-0 renal,29.5 µM
same,TGI,786-0 renal,> 100 µM
same,GI50,HCT-116 colon,3.54 µM
same,TGI,HCT-116 colon,18.5 µM
same,GI50,NCI-H522 lung,> 100 µM
same,TGI,NCI-H522 lung,> 100 µM
same,GI50,IGROV1 ovarian,34.5 µM
same,TGI,IGROV1 ovarian,> 100 µM
same,GI50,U251 CNS,20.8 µM
same,TGI,U251 CNS,> 100 µM
same,GI50,HL-60(TB) leukemia,10.7 µM
same,TGI,HL-60(TB) leukemia,33.6 µM
same,GI50,EKVX NSCLC,> 100 µM
same,TGI,EKVX NSCLC,> 100 µM
same,GI50,MOLT-4 leukemia,31.3 µM
same,TGI,MOLT-4 leukemia,> 100 µM
same,GI50,UO-31 renal,16.9 µM
same,TGI,UO-31 renal,> 100 µM
same,GI50,A549 NSCLC,28.1 µM
same,TGI,A549 NSCLC,> 100 µM
same,GI50,UACC-62 melanoma,17.1 µM
same,TGI,UACC-62 melanoma,38.2 µM
same,GI50,DU-145 prostate,86.6 µM
same,TGI,DU-145 prostate,> 100 µM
same,GI50,KM12 colon,16.6 µM
same,TGI,KM12 colon,> 100 µM
same,GI50,LOX IMVI melanoma,13.7 µM
same,TGI,LOX IMVI melanoma,50.6 µM
same,GI50,SF-539 CNS,24.4 µM
same,TGI,SF-539 CNS,> 100 µM
same,GI50,A498 renal,> 100 µM
same,TGI,A498 renal,> 100 µM
same,GI50,SN12C renal,22.7 µM
same,TGI,SN12C renal,> 100 µM
same,GI50,MDA-MB-231 breast,> 100 µM
same,TGI,MDA-MB-231 breast,> 100 µM
same,GI50,ACHN renal,54.9 µM
same,TGI,ACHN renal,> 100 µM
same,GI50,CCRF-CEM leukemia,40.9 µM
same,TGI,CCRF-CEM leukemia,95.5 µM
same,GI50,MALME-3M melanoma,> 100 µM
same,TGI,MALME-3M melanoma,> 100 µM
same,GI50,HCC-2998 colon,15.2 µM
same,TGI,HCC-2998 colon,50.4 µM
same,GI50,COLO 205 colon,50.1 µM
same,TGI,COLO 205 colon,> 100 µM
same,GI50,CAKI-1 renal,32.2 µM
same,TGI,CAKI-1 renal,> 100 µM
same,GI50,TK-10 renal,> 100 µM
same,TGI,TK-10 renal,> 100 µM
same,GI50,SK-MEL-2 melanoma,> 100 µM
same,TGI,SK-MEL-2 melanoma,> 100 µM
same,GI50,NCI-H23 lung,> 100 µM
same,TGI,NCI-H23 lung,> 100 µM
same,GI50,SK-MEL-5 melanoma,22.5 µM
same,TGI,SK-MEL-5 melanoma,> 100 µM
same,GI50,HS 578T breast,> 100 µM
same,TGI,HS 578T breast,> 100 µM
same,GI50,BT-549 breast,12 µM
same,TGI,BT-549 breast,46.7 µM
same,GI50,NCI-H226 lung,45.5 µM
same,TGI,NCI-H226 lung,> 100 µM
same,GI50,HCT-15 colon,5.64 µM
same,TGI,HCT-15 colon,> 100 µM
same,GI50,SR leukemia,8.37 µM
same,TGI,SR leukemia,48.7 µM
